Data on 45 compounds can be found in patent publication US20210015764A1, “METHODS OF REDUCING INFLAMMATION OF THE DIGESTIVE SYSTEM WITH INHIBITORS OF HIF-2- ALPHA” (Peloton Therapeutics Inc., priority 2018, published 2021).

The structures appear in SMILES notation. Where two headings read alike, the source gives them in different places.

Assay [1] concerns 786-O cells. The assay is described as follows: VEGF ELISA assay. The class given is cell-based. Particulars: Homo sapiens, 786-0, VEGF in culture medium. The procedure: Each concentration was plated in duplicate. About 20 hours later, medium was removed by suction and each well was supplied with 180 μL of growth medium. About 20 μl freshly-made 10× compound stocks were added to each well. […] The EC50 was calculated by GraphPad Prism using the dose-response-inhibition (four parameter) equation. The cell-seeded plate was then subjected to CellTiter-Glo luminescence cell viability assay (Promega) by adding 50 μL of Celltiter Glo reagent into each well and shaking the plate for 8 minutes at 550 rpm (Thermomixer R, Eppendorf) then the luminescence signal immediately read in a plate reader (3 second delay, 0.5 second/well integration time, Synergy 2 multi Detection Microplate reader).
(In general: ELISA stands for enzyme-linked immunosorbent assay.)

For assay [2], the system named is DSS induced colitis. The assay is described as follows: DSS-induced model of colitis, two DSS cycles (Example 12). The assay is classed as in vivo. Particulars: female C57BI6 mice, Compound 231 60 mg/kg BID, filgotinib 30 mg/kg QD; for colon length: day 27. The procedure: 6-8 week old female C57BI6 mice were tagged and weighed, then treated with 2% dextran sulfate sodium (DSS) for 6 days. A 2 week recovery phase of regular water was completed over days 7-19. […] Mice were monitored daily and scored for body weight loss, stool consistency/diarrhea, and blood in the feces/rectum. The disease activity index was calculated according to Table 4. The second DSS cycle and treatment regimen continued for 7 days, and then on day 27 the animals were sacrificed. Colons were harvested and the texture, appearance and length of the colons assessed. Colon tissues were prepared for H&E histology, immune gene expression analysis, and immune phenotyping of immune cell infiltrate by flow cytometry. [table]

Assay [3] has as its system 786-O-Hif-Luc cells. Kind of assay: Luciferase assay (HIF responsive element reporter). Particulars: 24 h.
Protocol: A pool of infected cells were then selected against 2 g/mL of puromycin (P8833, Sigma) for 10 days followed by limited dilution to select single clones.
Each concentration was tested in triplicate. After about 24 hours, luciferase activity was determined using ONE-Glo Luciferase Assay Reagent (E6110, Promega) following the manufacturer's recommended procedure. EC50 were calculated using Dotmatics software.
The target in assay [4] is T1, HIF-2α HIS TAG-PASB Domain (Homo sapiens, UniProt Q99814).
T1 construct: 100 nM HIF-2α HIS TAG-PASB Domain
T1 sequence (Q99814 240-350 limits assumed): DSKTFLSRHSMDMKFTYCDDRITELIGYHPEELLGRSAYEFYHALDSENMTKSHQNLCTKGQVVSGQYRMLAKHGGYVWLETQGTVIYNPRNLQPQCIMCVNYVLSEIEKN
Kind of assay: HIF-2α Scintillation Proximity Assay (SPA). The assay is classed as binding. The procedure:
The total assay volume was about 100 μL in the following configuration: 2 μL compound in 100% DMSO, 88 μL buffer with protein and probe and 10 μL of SPA beads. […] The percent inhibition was determined and IC50 values were calculated using the Dotmatics system based on the following equation: % inhibition=[(high control−sample)/(high control−low control)]×100.
In general terms: Scintillation proximity formats need no separation of bound from free tracer.

[5] abbreviates: read-out: Mean Luciferase EC50 (nM).
[6] abbreviates: probe displacement from HIF-2α PAS-B domain, read-out: Scintillation Proximity Assay IC50.
Setting [7] is: read-out: Mean Luciferase EC50 (nM), 786-O-Hif-Luc cells, about 24 hours.

As a reminder, the EC50 is the midpoint of the concentration-response curve. With `O=S(=O)(c1ccc(Oc2cc(F)cc(Cl)c2)c2c1[C@H](O)CC2)C(F)F` [Compound 1], in assay [1], the EC50 is 0.25 to 1 µM.

As for `O=C(Nc1nc2cccc(-c3ccc(CN4CCS(=O)(=O)CC4)cc3)n2n1)C1CC1` [filgotinib], the colon length result in assay [2] is reported as “This effect was reversed”. For the same compound, the “disease activity index score” value in assay [2] (second DSS cycle ([…] DSS, 7 days), vehicle group 6-7) was “slight decrease in the disease activity index, but only in the later stage of the disease progression”.

Regarding `CS(=O)(=O)c1ccc(Oc2cc(Cl)cc(C#N)c2)c2c1[C@H](O)C(F)(F)C2` [Compound 234], the values for the EC50 in assay [1] and in assay [3] (setting [5]) were 0.05 to 0.249 µM and less than 50 nM, respectively.

Turning to `CS(=O)(=O)c1ccc(Oc2cc(F)cc(C#N)c2)c2c1C(O)C(F)C2` (stereo not shown) [Compound 232], the EC50 in assay [3] (setting [5]) was less than 50 nM.

In the case of `CNS(=O)(=O)c1ccc(Oc2cc(F)cc(F)c2)c2c1[C@H](O)C(F)(F)C2` [Compound 251], the EC50 in assay [3] (setting [5]) is 50 to 249 nM.

For `CS(=O)(=O)c1ccc(Oc2cc(F)cc(C#N)c2)c2c1[C@H](N)C(F)(F)C2` [Compound 165], the concentration giving a half-maximal response (EC50) in assay [3] (setting [5]) lay within 50 to 249 nM.

With `N#Cc1cc(F)cc(Oc2ccc(S(N)(=O)=O)c3c2[C@@H](F)C(F)(F)[C@H]3O)c1` [Compound 338], in assay [3] (setting [5]), the EC50 is less than 50 nM.

Consider `N#Cc1cc(F)cc(Oc2ccc(S(N)(=O)=O)c3c2CC(F)(F)[C@H]3O)c1` [Compound 252], for which the concentration giving a half-maximal response (EC50) in assay [3] (setting [5]) lay within 50 to 249 nM.

With `C[C@H]1C[C@@H](O)c2c(S(=O)(=O)C(F)F)ccc(Oc3cc(F)cc(Cl)c3)c21` [Compound 7a], the EC50 in assay [3] (setting [5]) lay in the range of 250 to 1000 nM.

The IC50 is the point on the concentration scale where inhibition reaches its midpoint. In assay [4], `COCc1c(S(=O)(=O)C(F)F)ccc(Oc2cc(F)cc(Cl)c2)c1Cl` [Compound 44] registered an IC50 of more than 1 µM.

Turning to `NS(=O)(=O)c1ccc(Oc2cc(F)cc(F)c2)c2c1[C@H](O)C(F)(F)C2` [Compound 256], the concentration giving a half-maximal response (EC50) in assay [3] (setting [5]) was less than 50 nM.

On to `N#Cc1cc(Cl)cc(Oc2ccc(S(=O)(=O)CF)c3c2CC(F)(F)[C@H]3O)c1` [Compound 167], for which, in assay [3] (setting [5]), the EC50 is less than 50 nM.

On to `[2H][C@]1(O)c2c(S(C)(=O)=O)ccc(Oc3cc(F)cc(C#N)c3)c2CC1(F)F` [Compound 247], for which the EC50 in assay [3] (setting [5]) was less than 50 nM.

For the compound `O=S(=O)(c1ccc(OC2=CC=CN3CC=NC23)c2c1C(O)C(F)(F)C2)C(F)(F)F` (stereo not shown) [Compound 246], the IC50 in assay [4] (setting [6]) was more than 1 µM.

With `N#Cc1cc(F)cc(Oc2ccc(S(=O)(=O)C(F)(F)F)c3c2CCC3O)c1` (stereo not shown) [Compound 258], the EC50 in assay [3] (setting [5]) was more than 1000 nM.

As for `O=S(=O)(c1ccc(OC2CCOCC2)c2c1[C@@H](O)C(F)(F)C2)C(F)F` [Compound 782], the 50% inhibitory concentration (IC50) in assay [4] (setting [6]) lay in the range of 0.05 to 0.249 µM. Further, in assay [3] (setting [7]), the EC50 is 50 to 249 nM.

Regarding `CCCNc1ccc(S(=O)(=O)C(F)F)c2c1CC(F)(F)[C@H]2O` [Compound 532], in assay [4] (setting [6]), the IC50 is less than 0.05 µM. Further, in assay [3] (setting [7]), the EC50 was in the range of 250 to 1000 nM.

Take `O=C1CCC(Oc2ccc(S(=O)(=O)C(F)(F)F)c3c2CC(F)(F)[C@H]3O)CN1` (stereo partly shown) [Compound 719]: in assay [4] (setting [6]), the IC50 is more than 1 µM.

On to `CS(=O)(=O)c1ccc(Oc2cc(F)cc(C#N)c2)c2c1[C@@H](O)C(F)(F)C2` [Compound 226], for which the EC50 in assay [3] (setting [5]) was more than 1000 nM.

Regarding `N#Cc1cccc(Oc2ccc(S(=O)(=O)C(F)F)c3c2CC[C@H]3O)c1` [Compound 156], the concentration for a half-maximal effect (EC50) in assay [3] (setting [5]) is 250 to 1000 nM.

On to `N#Cc1cc(F)cc(Oc2ccc(S(=O)(=O)C(F)(F)F)c3c2CC[C@H]3O)c1` [Compound 57], for which the EC50 in assay [3] (setting [5]) was in the range of 50 to 249 nM.

Take `[2H]C([2H])([2H])S(=O)(=O)c1ccc(Oc2cc(F)cc(C#N)c2)c2c1[C@]([2H])(O)C(F)(F)C2` [Compound 229]: the EC50 in assay [3] (setting [5]) is less than 50 nM.

Regarding `CS(=O)(=O)c1ccc(Oc2cc(F)cc(C#N)c2)c2c1[C@H](O)[C@H](F)[C@@H]2F` [Compound 289, 3-[(1S,2S,3R)-2,3-difluoro-1-hydroxy-7-methylsulfonyl-indan-4-yl]oxy-5-fluoro-benzonitrile], in assay [3] (setting [5]), the EC50 was less than 50 nM.

Regarding `CS(=O)(=O)c1ccc(Oc2cc(F)cc(C#N)c2)c2c1[C@H](O)[C@H](F)C2` [Compound 231], in assay [2], the colon length entry is given as “greatest improvement in colon length”. Besides, the EC50 in assay [3] (setting [5]) is less than 50 nM.

`N#Cc1cncc(Oc2ccc(S(=O)(=O)C(F)(F)F)c3c2CC(F)(F)[C@H]3O)c1` [Compound 235]: in assay [3] (setting [5]), the EC50 is less than 50 nM.

For the compound `N#Cc1cc(F)cc(Oc2ccc(S(=O)(=O)C(F)(F)F)c3c2C[C@@H](F)[C@H]3O)c1` [Compound 227], the concentration for a half-maximal effect (EC50) in assay [3] (setting [7]) was less than 50 nM.

In the case of `N#Cc1cc(F)cc(Oc2ccc(S(=O)(=O)C(F)F)c3c2CCC3O)c1` (stereo not shown) [Compound 78], the EC50 in assay [1] lay within 0.25 to 1 µM.

Take `CCS(=O)(=O)c1ccc(Oc2cc(F)cc(C#N)c2)c2c1[C@H](O)C(F)(F)C2` [Compound 206]: in assay [3] (setting [5]), the concentration giving a half-maximal response (EC50) lay in the range of 50 to 249 nM.

As for `N#Cc1cc(F)cc(Oc2ccc(S(=O)(=O)C(F)F)c3c2CC[C@H]3O)c1` [Compound 155], the EC50 in assay [1] lay within 0.05 to 0.249 µM; in assay [3] (setting [5]), 50 to 249 nM.

Consider `O=S(=O)(c1ccc(Oc2cc(F)cc(Cl)c2)c(C(F)F)c1)C(F)(F)F` [Compound 124], for which the EC50 lay in the range of 0.25 to 1 µM in assay [1] and 250 to 1000 nM in assay [3] (setting [5]).

Regarding `O=S(=O)(c1ccc(Oc2cc(F)cc(Cl)c2)c2c1C(O)CC2)C(F)F` (stereo not shown) [Compound 17], in assay [1], the EC50 was 0.05 to 0.249 µM.

Turning to `CC(C)(C)OC(=O)NC1CC(Oc2ccc(S(=O)(=O)C(F)(F)F)c3c2CC(F)(F)[C@H]3O)C1` (stereo partly shown) [Compound 722], the EC50 in assay [3] (setting [7]) was more than 1000 nM.

On to `CS(=O)(=O)c1ccc(Oc2cc(F)cc(C#N)c2)c2c1C(O)C(F)(F)C2` (stereo not shown) [Compound 223], for which the EC50 in assay [3] (setting [5]) lay in the range of 50 to 249 nM.

Regarding `N#Cc1cc(F)cc(Oc2ccc3c(c2Br)C(N)C(F)(F)S3(=O)=O)c1` (stereo not shown) [Compound 376], the IC50 in assay [4] (setting [6]) is less than 0.05 µM. In addition, in assay [3] (setting [7]), the EC50 is more than 1000 nM.

In the case of `N#Cc1cc(F)cc(Oc2ccc(S(N)(=O)=O)c3c2[C@H](F)C(F)(F)[C@H]3O)c1` [Compound 339], the EC50 in assay [3] (setting [5]) was in the range of 250 to 1000 nM.

On to `N#Cc1cc(F)cc(-c2cnc(C(F)(F)F)c3c2C[C@@H](F)[C@H]3O)c1` [Compound 471], for which the 50% inhibitory concentration (IC50) in assay [4] (setting [6]) was in the range of 0.25 to 1 µM.

With `N#Cc1ccc(Oc2cc(F)cc(F)c2)c2c1[C@H](O)C(F)(F)C2` [Compound 67], the 50% effective concentration (EC50) in assay [1] was in the range of 0.05 to 0.249 µM.

For `O=S(=O)(c1ccc(Oc2cc(F)cc(Cl)c2)c(Cl)c1CO)C(F)F` [Compound 41], the EC50 lay within 0.25 to 1 µM in assay [1] and 250 to 1000 nM in assay [3] (setting [5]).

For `O=S(=O)(c1ccc(Oc2cc(F)cc(Cl)c2)c2c1[C@H](O)C[C@@H]2CO)C(F)(F)F` [Compound 281], the half-maximal inhibitory concentration (IC50) in assay [4] (setting [6]) lay within 0.25 to 1 µM.

Regarding `CNS(=O)(=O)c1ccc(Oc2cc(F)cc(C#N)c2)c2c1[C@H](O)C(F)(F)C2` [Compound 254], the EC50 in assay [3] (setting [5]) lay in the range of 50 to 249 nM.

Consider `O=S(=O)(c1ccc(OC2CC(O)C2)c2c1[C@H](O)C(F)(F)C2)C(F)(F)F` (stereo partly shown) [Compound 644], for which the EC50 in assay [3] (setting [7]) fell in the range of 250 to 1000 nM.

`CS(=O)(=O)c1ccc(Oc2cc(F)cc(C#N)c2)c2c1[C@H](O)[C@@H](F)C2` [Compound 271]: in assay [3] (setting [5]), the EC50 lay in the range of 250 to 1000 nM.

Regarding `CS(=O)(=O)c1ccc(Oc2cc(F)cc(C#N)c2)c2c1[C@H](O)C(F)(F)C2` [Compound 163, (S)-3-((2,2-difluoro-1-hydroxy-7-(methylsulfonyl)-2,3-dihydro-1H-inden-4-yl)oxy)-5-fluorobenzonitrile], the EC50 in assay [3] (setting [5]) was less than 50 nM.

In the case of `O=S1(=O)c2ccc(OC3CCOCC3)c(C(F)F)c2C(O)C1(F)F` (stereo not shown) [Compound 400], in assay [4] (setting [6]), the IC50 is more than 1 µM. In addition, the EC50 in assay [3] (setting [7]) is more than 1000 nM.

Take `N#Cc1cc(F)cc(Oc2ccc(S(=O)(=O)C(F)(F)F)c3c2CC(F)(F)[C@H]3N)c1` [Compound 290]: the EC50 in assay [3] (setting [5]) fell in the range of 50 to 249 nM.
